Laboratory results published in patent US11167039B2, “MET antibody drug conjugates” (priority 2016, dated 2021).
Entries after “also recorded” stand apart in the source; their conditions may differ.

Tests used:
[1] = system: pan-AKT phosphorylation (pAKT) in Caki-1 cells; experiment: Phosphor-AKT bioassay for MET agonist activity in Caki-1 cells; assay type: cell-based; conditions: 5 μg/mL
Protocol: Because it has been reported that MET agonistic antibodies increased hepatocyte proliferation and toxicity, a phosphor-AKT assay may be used to test MET-ADCs for MET agonist activity. Briefly stated, Caki-1 cells may be starved overnight in serum-free medium with 0.1% BSA and then treated with ADCs or naked MET antibodies at 5 μg/mL for the desired durations. Cell lysates may be analyzed for phosphorylation of pan-AKT by MSD ELISA, for example.

[2] = system: Aspc-1; experiment: Cell killing, Aspc-1; assay type: cell-based, human; design: key: Sensitive; Resistant; conditions: Aspc-1, PANC Ca
Protocol: (§1) Briefly described, 2-3×10^3 cells/well in 100 μL of culture medium may be plated in 96 well plates and incubated overnight at 37° C., 5% CO2. The MET-ADCs, MET antibody(ies), control MMAE or control hIgG4 conjugated to MMAE with cysteine conjugation antibody(ies) may be diluted 1:3 in serum-free culture medium starting from 100 nM (final) in 50 μL as 3× concentrations to the HT-29 cells. At the end of an additional 5-6 days of cell growth at 37° C. in a humidified incubator with 5% CO2, the plates may be equilibrated to room temperature for 30 minutes and 100 μL/well of CellTiter-Glo® reagent (Promega Corp., Fitchburg, Wis.) may then be added to assess cell viability. Cell viability may be determined by measuring luminescence.
(§2) Various tumor cell lines and normal human cells may be tested for MET-ADC induced cell killing activity essentially as described above in Example 10 as assessed for MET receptor density. MET cell surface density was determined by indirect immunofluorescence staining of cell surface antigens on cultured cells using QIFIKIT (Dako). […] Following a forty-five minute incubation, cells may be incubated for 1 hour on ice with FITC conjugated antibody diluted 1:50 in FACS buffer. Then cells may be washed and receptor numbers may be determined by indirect immunofluorescence staining of the QIFIKIT beads using a Becton Dickinson LSRII flow cytometer.

[3] = system: KP-4; experiment: Cell killing, KP-4; assay type: cell-based, human; design: key: Sensitive; Resistant; conditions: KP-4, PANC Ca
Protocol: as §1, §2

[4] = system: Panc-1; experiment: Cell killing, Panc-1; assay type: cell-based, human; design: key: Sensitive; Resistant; conditions: Panc-1, PANC Ca
Protocol: as §1, §2

[5] = system: RKO; experiment: RKO cell-killing assay; assay type: cell-based, human; conditions: RKO (BRAF, PIK3) colon cancer cells
Protocol: as §1, §2

[6] = system: CXF-269L; experiment: Cell killing, CXF-269L; assay type: cell-based, human; design: key to Sensitive/ Resistant: Sensitive; Resistant
Protocol: as §1, §2

[7] = system: HCC827; experiment: Cell killing, HCC827; assay type: cell-based, human; design: key: Sensitive; Resistant; conditions: HCC827, NSCLC
Protocol: as §1, §2

[8] = system: Cal27; experiment: Cell killing, Cal27; assay type: cell-based, human; design: key: Sensitive; Resistant; conditions: Cal27, head and neck cancer
Protocol: as §1, §2

[9] = system: L55; experiment: Cell killing, L55; assay type: cell-based, human; design: key: Sensitive; Resistant; conditions: L55, NSCLC
Protocol: as §1, §2

[10] = system: HuAEC; experiment: Cell killing, non-tumor HuAEC; assay type: cell-based, human; design: key: Sensitive; Resistant; conditions: aortic endothelia cell
Protocol: as §1, §2

[11] = system: AOSMC; experiment: Cell killing, non-tumor AOSMC; assay type: cell-based, human; design: key: Sensitive; Resistant; conditions: aortic smooth muscule cell
Protocol: as §1, §2

[12] = system: RPTEC; experiment: Cell killing, non-tumor RPTEC; assay type: cell-based, human; design: key: Sensitive; Resistant; conditions: renal proximal tubul cell
Protocol: as §1, §2

[13] = system: humen fresh naïve PBMC; experiment: Cell killing, fresh naïve PBMC; assay type: cell-based, human; design: key: Sensitive; Resistant; conditions: 3 donors
Protocol: as §1, §2

[14] = system: MET expressing tumor cells; experiment: Correlation of tumor cell MET expression level and sensitivity to MET-ADC; assay type: cell-based
Protocol: as §1, §2

[15] = system: BxPC-3 xenograft; experiment: BxPC-3 pancreatic cancer xenograft model; assay type: in vivo, mouse; conditions: vs control hIgG4-Lys-ADC
Protocol: (§3) Female athymic nude mice age 6- to 7-weeks old are available commercially, including from Harlan Laboratories (Indianapolis, Ind.). The mice are allowed to acclimate for one week and fed ad libitum on a normal low fat (4.5%) diet, which may be continued for the duration of the study. Tumor cells may be purchased from ATCC and may be cultured in cell culture media such as RPMI 1640 (Life Technologies) with L-glutamine, 25 mM HEPES supplemented with 10% FBS and 1 mM Na Pyruvate. Cells may be detached, washed with serum free medium and then resuspended at a final concentration of 50×10^6 cells/mL in serum free RPMI 1640. Tumor cells, approximately 5×10^6, may be injected subcutaneously in the rear flank of subject mice in a 1:1 mixture of serum free growth medium and Matrigel (Becton Dickinson, Bedford, Mass.). Tumor and body weight measurements may be performed twice weekly. Prior to treatment, mice can be randomized based on tumor size using a randomization algorithm. Treatments may be started when the average tumor volume reaches 100 mm^3. […]
(§4) MET-ADCs and control hIgG4-MMAE may be prepared in Phosphate Buffered Saline (PBS) prior to dose. Tumor size may be determined by caliper measurements. […] Log volume data can be analyzed with two-way repeated measures ANOVA by time and treatment using SAS PROC MIXED software (SAS Institutes Inc, Cary, N.C.). […]

[16] = system: Hs746T xenografts; experiment: Hs746T gastric cancer xenograft model; assay type: in vivo, mouse; conditions: 3 mg/kg once per week for 4 weeks
Protocol: as §3, §4

[17] = system: Calu-6 xenograft; experiment: Calu-6 non-small-cell-lung cancer xenograft model; assay type: in vivo, mouse
Protocol: as §3, §4

[18] = system: cholangiocarcinoma PDX tumors; experiment: Cholangiocarcinoma PDX model; assay type: in vivo, mouse; conditions: 5 mg/kg weekly, four doses; 4 cholangiocarcinoma PDX
Excerpt: Body weight can also be assessed regularly.
Tumor samples from 4 human cholangiocarcinoma patients were individually implanted into different immunocompromised mice (i.e., each mouse carried one tumor derived from a patient's cholangiocarcinoma tumor) essentially as described above in this Example 13.

With “MET-ADC#1: emibetuzumab lysine-conjugated via (2,5-dioxopyrrolidin-1-yl) 2-azidoacetate and Octyne-β-Glucn-MMAE” the “MET agonist activity (induction of pan-AKT phosphorylation)” value [1] was “same low to no agonist activity as its unconjugated parental antibody, emibetuzumab; also recorded: does not have increased agonist activity as compared with emibetuzumab”, the “Sensitive/ Resistant” value [2] was “S” and the “Sensitive/ Resistant” value [3] was “S”. For the same substance, the “Sensitive/ Resistant” value [4] was “R”, the “cell killing activity in RKO cells” value [5] was “killed; also recorded: highly potent in killing RKO cells” and the “cell killing activity in CXF-269L cells” value ([6]; CXF-269L (TP53) colon cancer cells) was “killed”. The “Sensitive/ Resistant” value ([6]; CXF-269L, Colorectal Ca) was “S”, the “Sensitive/ Resistant” value [7] was “S” and the “Sensitive/ Resistant” value [8] was “S”. The “Sensitive/ Resistant” value [9] was “R”, the “Sensitive/ Resistant” value [10] was “R” and the “Sensitive/ Resistant” value [11] was “R”. For the same substance, the “Sensitive/ Resistant” value [12] was “R”, the “Sensitive/ Resistant” value [13] was “R” and the “killing activity compared with MET-ADC #6” value ([14]; similar experiments using other cells) was “superior killing activity than MET-ADC #6”. For the same substance, the “approximate threshold of MET cell surface density for tumor cell killing” value ([14]; tumor cells sensitive to MMAE, not secreting HGF) was > 32,000 receptor per cells, the anti-tumor activity [15] was “dramatic anti-tumor activity” and the antitumor efficacy [16] was “significantly greater antitumor efficacy than the IgG4 Lys-MMAE control treatments; also recorded: durable and complete tumor regression”. The antitumor efficacy [17] was “initial tumor regression and stable disease status” and the “inhibition of tumor growth” value [18] was “dramatically inhibited tumor growth”.
